Test results taken from US20240174603A1 (Rappta Therapeutics Oy, priority 2021, published 2024).

system: LNCaP cells; test: LNCaP cell viability assay (MTS); type: cell-based; conditions: Homo sapiens, LNCaP cell line, 48 hours
Summary of the method: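 LNCaP cells (5000/well) treated 24 h after plating with compound at 1–80 µM for 48 h. Relative cell number read by MTS; GI50 from four-parameter variable-slope log(inhibitor) fit with bottom constrained to zero.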

| Structure (SMILES) | GI50 |
| --- | --- |
| O=S(=O)(NC(CN1CCCC1)c1ccc(Cl)cc1)c1ccc(OC(F)(F)F)cc1 (centres unmarked) [Compound 181, N-(1-(4-chlorophenyl)-2-(pyrrolidin-1-yl)ethyl)-4-(trifluoromethoxy)benzenesulfonamide] | 51.4 µM |
| O=S(=O)(NC(CN1CCCCC1)c1ccc(Cl)cc1)c1ccc(OC(F)(F)F)cc1 (centres unmarked) [Compound 183, N-(1-(4-chlorophenyl)-2-(piperidin-1-yl)ethyl)-4-(trifluoromethoxy)benzenesulfonamide] | 33.8 µM |

same assay, conditions: Homo sapiens, LNCaP, 48 h, LNCaP cell line

| Structure (SMILES) | GI50 |
| --- | --- |
| Cc1ccc(C(NS(=O)(=O)c2ccc(OC(F)(F)F)cc2)C(C)S(C)(=O)=O)cc1 (centres unmarked) [Compound 104, N-(2-(methylsulfonyl)-1-(p-tolyl)propyl)-4-(trifluoromethoxy)benzenesulfonamide] | 49 µM |
| O=S(=O)(N[C@@H](CO)c1ccc(Cl)c(Cl)c1)c1ccc(OC(F)(F)F)cc1 [Compound 121, (R)—N-(1-(3,4-dichlorophenyl)-2-hydroxyethyl)-4-(trifluoromethoxy)benzenesulfonamide] | 40.2 µM |
| O=S(=O)(NC(CC1CC1)c1ccc(F)cc1Br)c1ccc(OC(F)(F)F)cc1 (single isomer, unassigned) [Compound 142a, N-(1-(2-bromo-4-fluorophenyl)-2-cyclopropylethyl)-4-(trifluoromethoxy)benzenesulfonamide] | 80 µM |
| CN(C)CC(NS(=O)(=O)C1CCCCC1)c1ccc(Cl)c(Cl)c1 (centres unmarked) [Compound 135, N-(1-(3,4-dichlorophenyl)-2-(dimethylamino)ethyl)cyclohexanesulfonamide] | 57.3 µM |
| CCOC(=O)C(CC(C)CC)NS(=O)(=O)c1ccc(OC(F)(F)F)cc1 (centres unmarked) [Compound 47, Ethyl 4-methyl-2-((4-(trifluoromethoxy)phenyl)sulfonamido)hexanoate] | 70 µM |
| CC(NS(=O)(=O)c1ccc(OC(F)(F)F)cc1)c1cc(F)ccc1N1CCC(O)CC1 (centres unmarked) [Compound 21, N-(1-(5-fluoro-2-(4-hydroxypiperidin-1-yl)phenyl)ethyl)-4-(trifluoromethoxy)benzenesulfonamide] | 46.8 µM |
| CCOC(=O)C(CC1CCOC1)NS(=O)(=O)c1ccc(OC(F)(F)F)cc1 (centres unmarked) [Compound 110, Ethyl 3-(tetrahydrofuran-3-yl)-2-((4-(trifluoromethoxy)phenyl)sulfonamido)propanoate] | 61 µM |
| CCOC(=O)C(Cc1ccccc1Cl)NS(=O)(=O)c1ccc(OC(F)(F)F)cc1 (centres unmarked) [Compound 45, Ethyl 3-(2-chlorophenyl)-2-((4-(trifluoromethoxy)phenyl)sulfonamido)propanoate] | 46 µM |
| O=S(=O)(NCCC(O)(C(F)(F)F)C(F)(F)F)c1ccc(OC(F)(F)F)cc1 [Compound 50, N-(4,4,4-trifluoro-3-hydroxy-3-(trifluoromethyl)butyl)-4-(trifluoromethoxy)benzenesulfonamide] | 71 µM |
| O=S(=O)(NCc1ccccc1N1CCCC1)c1ccc(OC(F)(F)F)cc1 [Compound 30, N-(2-(pyrrolidin-1-yl)benzyl)-4-(trifluoromethoxy)benzenesulfonamide] | 49.7 µM |
| NC[C@@H](NS(=O)(=O)c1ccc(OC(F)(F)F)cc1)c1ccccc1 [Compound 117, (S)—N-(2-amino-1-phenylethyl)-4-(trifluoromethoxy)benzenesulfonamide] | 55 µM |
| CCOC(=O)C(Cc1cc(Cl)sc1Cl)NS(=O)(=O)c1ccc(OC(F)(F)F)cc1 (centres unmarked) [Compound 42, Ethyl 3-(2,5-dichlorothiophen-3-yl)-2-((4-(trifluoromethoxy)phenyl)sulfonamido)propanoate] | 57.8 µM |
| COC(=O)C(NS(=O)(=O)c1ccc(OC(F)(F)F)cc1)c1ccccc1Br (centres unmarked) [Compound 92, Methyl 2-(2-bromophenyl)-2-((4-(trifluoromethoxy)phenyl)sulfonamido)acetate] | 42 µM |
| CC1CCCC(CNS(=O)(=O)c2ccc(OC(F)(F)F)cc2)(N(C)C)C1 (centres unmarked) [Compound 99, N-((1-(dimethylamino)-3-methylcyclohexyl)methyl)-4-(trifluoromethoxy)benzenesulfonamide] | 45 µM |
| COc1ccc(C)cc1CC(NS(=O)(=O)c1ccc(OC(F)(F)F)cc1)C(C)C (centres unmarked) [Compound 18, N-(1-(2-methoxy-5-methylphenyl)-3-methylbutan-2-yl)-4-(trifluoromethoxy)benzenesulfonamide] | 76.7 µM |

Further lines, results first:

| GI50 | Structure (SMILES) |
| --- | --- |
| 40.1 µM | O=S(=O)(NC(c1ccc(F)c(C(F)(F)F)c1)C1CC1)c1ccc(OC(F)(F)F)cc1 (centres unmarked) [Compound 34, N-(cyclopropyl(4-fluoro-3-(trifluoromethyl)phenyl)methyl)-4-(trifluoromethoxy)benzenesulfonamide] |
| 39.5 µM | CCCCC(NS(=O)(=O)c1ccc(OC(F)(F)F)cc1)C(=O)OC(C)(C)C (centres unmarked) [Compound 5, Tert-butyl 2-((4-(trifluoromethoxy)phenyl)sulfonamido)hexanoate] |
| 38.3 µM | CCOc1ccc(Cl)cc1CCNS(=O)(=O)c1ccc(OC(F)(F)F)cc1 [Compound 29, N-(5-chloro-2-ethoxyphenethyl)-4-(trifluoromethoxy)benzenesulfonamide] |
| 37.3 µM | CC1(C)CC1(CNS(=O)(=O)c1ccc(OC(F)(F)F)cc1)c1ccccc1 (centres unmarked) [Compound 230, N-((2,2-dimethyl-1-phenylcyclopropyl)methyl)-4-(trifluoromethoxy)benzenesulfonamide] |
| 34 µM | COc1ccc(CNCC(NS(=O)(=O)c2ccc(OC(F)(F)F)cc2)c2ccc(Cl)c(Cl)c2)cc1 (centres unmarked) [Compound 256, N-(1-(3,4-dichlorophenyl)-2-((4-methoxybenzyl)amino)ethyl)-4-(trifluoromethoxy)benzenesulfonamide] |
| 34 µM | CC(CC1CCCCN1C)NS(=O)(=O)c1ccc(OC(F)(F)F)cc1 (centres unmarked) [Compound 93, N-(1-(1-methylpiperidin-2-yl)propan-2-yl)-4-(trifluoromethoxy)benzenesulfonamide] |
| 30 µM | O=S(=O)(NCC1(c2c(Cl)cccc2Cl)CCC1)c1ccc(OC(F)(F)F)cc1 [Compound 56, N-((1-(2,6-dichlorophenyl)cyclobutyl)methyl)-4-(trifluoromethoxy)benzenesulfonamide] |
| 25.4 µM | CC(C)Oc1ccc(S(=O)(=O)NC(CN(C)C)c2ccc(Cl)c(Cl)c2)cc1 (centres unmarked) [Compound 208, N-(1-(3,4-dichlorophenyl)-2-(dimethylamino)ethyl)-4-isopropoxybenzenesulfonamide] |
| 13.6 µM | CN(C)CC(NS(=O)(=O)c1ccc(Nc2ccccc2)cc1)c1ccc(Cl)c(Cl)c1 (centres unmarked) [Compound 188, N-(1-(3,4-dichlorophenyl)-2-(dimethylamino)ethyl)-4-(phenylamino)benzenesulfonamide] |
| 6.19 µM | CN1CCN(CC(NS(=O)(=O)c2ccc(Oc3ccc(C(F)(F)F)cc3)cc2)c2ccc(Cl)c(Cl)c2)CC1 (centres unmarked) [Compound 233, N-(1-(3,4-dichlorophenyl)-2-(4-methylpiperazin-1-yl)ethyl)-4-(4-(trifluoromethyl)phenoxy)benzenesulfonamide] |
| 1.77 µM | CN(C)CC(NS(=O)(=O)c1ccc(OC(F)(F)F)c([N+](=O)[O-])c1)c1ccc(Cl)cc1 (centres unmarked) [Compound 206, N-(1-(4-chlorophenyl)-2-(dimethylamino)ethyl)-3-nitro-4-(trifluoromethoxy)benzenesulfonamide] |

same assay, conditions: LNCaP cell line, 48 hours

| GI50 | Structure (SMILES) |
| --- | --- |
| 21.3 µM | O=S(=O)(NC(c1cc(Cl)cc(Cl)c1)C1CCCCC1)c1ccc(OC(F)(F)F)cc1 (single isomer, unassigned) [Compound 141, N-(cyclohexyl(3,5-dichlorophenyl)methyl)-4-(trifluoromethoxy)benzenesulfonamide] |
